{
  "source": "patent US20060039856A1",
  "about": "“Magnetic resonance with stimulation” (McLean Hospital Corporation, priority 2001, published 2006)",
  "system": "right and left V1 (primary visual cortex) BOLD signal",
  "test": "BOLD fMRI of visual cortex during red and blue photic stimulation after oral drug or placebo",
  "details": "for mean BOLD signal change, higher in drug than in placebo condition: all trials, 2.5 mg oral",
  "data": [
    {"smiles": "C[C@H](N)Cc1ccccc1.C[C@H](N)Cc1ccccc1.O=S(=O)(O)O", "note": "[d-amphetamine, d-amphetamine sulfate]", "values": [
      {"measurement": "mean BOLD signal change, higher in drug than in placebo condition", "setting": "blue light 0.12 lux, drug vs placebo (1.60%)", "result": 28, "unit": "%"},
      {"measurement": "effect of time following drug administration on BOLD signal response (linear regression)", "setting": "blue light, Z=-2.471, P=0.013, decreasing BOLD signal over time", "result": "significant effect of time"},
      {"measurement": "mean BOLD signal change, higher in drug than in placebo condition", "setting": "red light 0.12 lux, drug vs placebo (0.95%)", "result": 30, "unit": "%"},
      {"measurement": "effect of time following drug administration on BOLD signal response (linear regression)", "setting": "red light, Z=-0.470, P=0.638", "result": "no significant effect of drug over time"}
    ]}
  ]
}
